Measurements: patent publication US20230225987A1, “TOPICAL PHARMACEUTICAL COMPOSITIONS” (Dermavant Sciences GmbH, priority 2020, published 2023)

Columns and labels:
[1] = Pre-formulation solubility of DMVT-505 in excipients and solvent systems; format: physicochemical
Procedure: (§1) Pre-formulation experiments were performed to understand the solubility and stability of the drug in excipients. In relation to drug/excipient compatibility, DMVT-505 was stable for 2 weeks (peak purity>98%) in most excipients at 40° C., with the exception of MCTs and DMI, which may be due to oxidation. Based on the pre-formulation data, aqueous-based solvent systems were designed for WS3. Further formulations were prepared combining suitable phases developed during all the workstreams to obtain formulations to limit the suspected drug partitioning between the aqueous and oil phases (WS2/3/4).
Experiments conducted on the stability of DMVT-505 in individual excipients also allowed for the identification of suitable alternative oil and aqueous phase excipients, and this information was used during the formulation development as the basis of solvent system design.
For WS3, aqueous phases were designed and DMVT-505 solubility in such systems was determined, ahead of formulation development where formulations were sequentially developed, tested and optimized using accelerated physical stability data generated primarily via the LUMiSizer platform. […] Additionally, combined aspects of each workstream (WS2/3/4) were developed with optimal physical stability and to limit the partitioning of the drug between the oil and aqueous phases.
For WS2, oil phase solvent systems were designed and DMVT-505 solubility in such systems was determined, ahead of formulation development where formulations were sequentially developed, tested and optimized using accelerated physical stability data generated primarily via the LUMiSizer platform. […] A number of emulsifiers and surfactant systems (WS4) were screened in order to achieve a formulation which was, theoretically, as stable as CR01. To do this, WS4 formulations were rationally designed, prepared and tested in a similar fashion to the previous workstreams. Additionally, combined aspects of each workstream (WS2/3/4) were developed with optimal physical stability and to limit the partitioning of the drug between the oil and aqueous phases.

AhR target gene, cyp1a1 = conditions: primary human keratinocytes, human or rodent leukocytes
[2] = Drug/excipient compatibility, 2 weeks at 40° C.; format: physicochemical; conditions: 2 weeks in most excipients at 40° C., with the exception of MCTs and DMI
Procedure: as §1
as §1, with “oil-based” for “aqueous-based”, “WS2. Formulations based on these solvent systems, along with formulations with alternative emulsifiers (WS4) were developed.” for “WS3.”

[3] = Gao et al., Journal of Polymer Research 2011; cited from earlier work
[4] = test system: AhR pathway in intestinal human colon adenocarcinoma
[5] = 28-day twice daily topical administration: toxicokinetics, skin concentrations, dermal irritancy and toxicity (Example 7); design: species or system Gottingen minipigs; conditions: minipig, in vivo
Procedure: Following dose application on each dosing day, the dose sites were semi-occluded for approximately 20±1 hours from the first dose and then gently washed before the next dose was applied.

[6] = Nonclinical study, subcutaneous 3 mg/kg/day, 13 weeks (NOAEL); format: in vivo; conditions: Rat

CC(C)c1c(O)cc(/C=C/c2ccccc2)cc1O [3,5-Dihydroxy-4-isopropyl-trans-stilbene]
solubility in diisopropyl adipate [1]: good solubilizer
solubility in mineral oil [1]: non-solvent
solubility in water [1]: not soluble in water
solubility ([1]; in fixed oils, fatty alcohols, glycols and volatile solvent): > 7 % w/w
expression of the AhR target gene cyp1a1 (AhR target gene, cyp1a1): induce the expression
peak purity [2]: > 98%
sensitivity to oxidation and photo degradation [3]: sensitive to oxidation and photo degradation
AhR pathway activity [4]: activator
dermal irritation at the dose site [5]: no test article-related dermal irritation
systemic toxicity [5]: no systemic toxicity
AUC NOAEL [6]: 99 ng·h/mL
